Experimental data as given in PubChem BioAssay (NCI).
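96-well plates; 48 h exposure; 5 concentrations. Endpoints by linear interpolation between flanking doses. Not reached: highest tested concentration assigned. TGI denotes the concentration required for complete inhibition of growth.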

Tests used:
Experiment in all cases: NCI tumour cell line growth inhibition, 48 h
OVCAR-8 ovarian = tested on: OVCAR-8 ovarian
HT29 colon = tested on: HT29 colon
TK-10 renal = tested on: TK-10 renal
SNB-75 CNS = tested on: SNB-75 CNS
HCC-2998 colon = tested on: HCC-2998 colon
IGROV1 ovarian = tested on: IGROV1 ovarian
SK-MEL-28 melanoma = tested on: SK-MEL-28 melanoma
HCT-15 colon = tested on: HCT-15 colon
A498 renal = tested on: A498 renal
MOLT-4 leukemia = tested on: MOLT-4 leukemia

SMILES: CC(=O)Oc1c(-c2ccccc2)sc2ccccc12
- TGI (OVCAR-8 ovarian): > 100 µM
- TGI (HT29 colon): 35.3 µM
- TGI (TK-10 renal): 65.1 µM
- TGI (SNB-75 CNS): 34.8 µM
- TGI (HCC-2998 colon): 32 µM
- TGI (IGROV1 ovarian): 30.7 µM
- TGI (SK-MEL-28 melanoma): 53.1 µM
- TGI (HCT-15 colon): 37.1 µM
- TGI (A498 renal): 34.5 µM
- TGI (MOLT-4 leukemia): 40.7 µM

SMILES: O=c1[nH]cc(Cl)c(=O)[nH]1
- TGI (OVCAR-8 ovarian): > 100 µM
- TGI (HT29 colon): > 100 µM
- TGI (TK-10 renal): > 100 µM
- TGI (SNB-75 CNS): > 100 µM
- TGI (HCC-2998 colon): > 100 µM
- TGI (IGROV1 ovarian): > 100 µM
- TGI (SK-MEL-28 melanoma): > 100 µM
- TGI (HCT-15 colon): > 100 µM
- TGI (A498 renal): > 100 µM
- TGI (MOLT-4 leukemia): > 100 µM

SMILES: COc1ccccc1NC(=O)CC(=O)N1N=C(N2c3ccccc3Sc3ccccc32)CC1c1ccccc1 (stereo not given)
- TGI (OVCAR-8 ovarian): > 100 µM
- TGI (HT29 colon): > 100 µM
- TGI (TK-10 renal): > 100 µM
- TGI (SNB-75 CNS): > 100 µM
- TGI (HCC-2998 colon): > 100 µM
- TGI (IGROV1 ovarian): > 100 µM
- TGI (SK-MEL-28 melanoma): > 100 µM
- TGI (HCT-15 colon): > 100 µM
- TGI (A498 renal): > 100 µM
- TGI (MOLT-4 leukemia): > 100 µM

SMILES: CCOC(=O)C(Cc1c[nH]c2cc([N+](=O)[O-])ccc12)NS(=O)(=O)c1ccc2ccccc2c1 (stereo not given)
- TGI (OVCAR-8 ovarian): 55.7 µM
- TGI (HT29 colon): 31 µM
- TGI (TK-10 renal): 74.3 µM
- TGI (SNB-75 CNS): 50.4 µM
- TGI (HCC-2998 colon): 49.4 µM
- TGI (IGROV1 ovarian): 48 µM
- TGI (SK-MEL-28 melanoma): 32.1 µM
- TGI (HCT-15 colon): 41.2 µM
- TGI (A498 renal): 80 µM
- TGI (MOLT-4 leukemia): > 100 µM

SMILES: CC(=O)Oc1ccc2c(c1)CC[C@@H]1C2[C@@H](O[N+](=O)[O-])C[C@@]2(C)C1CC[C@@H]2O[N+](=O)[O-] (stereo not given in full)
- TGI (OVCAR-8 ovarian): 33.4 µM
- TGI (HT29 colon): 30.2 µM
- TGI (TK-10 renal): 35.7 µM
- TGI (SNB-75 CNS): 28.7 µM
- TGI (HCC-2998 colon): 25.9 µM
- TGI (IGROV1 ovarian): 30.7 µM
- TGI (SK-MEL-28 melanoma): 28.7 µM
- TGI (HCT-15 colon): 28.1 µM
- TGI (A498 renal): 32.8 µM
- TGI (MOLT-4 leukemia): 38.4 µM

SMILES: Clc1cccc(NN=Nc2ccc(-c3nc4ccccc4s3)cc2)c1
- TGI (OVCAR-8 ovarian): 45.9 µM
- TGI (HT29 colon): > 100 µM
- TGI (TK-10 renal): > 100 µM
- TGI (SNB-75 CNS): 66.1 µM
- TGI (HCC-2998 colon): > 100 µM
- TGI (IGROV1 ovarian): 54.5 µM
- TGI (SK-MEL-28 melanoma): > 100 µM
- TGI (HCT-15 colon): > 100 µM
- TGI (A498 renal): > 100 µM
- TGI (MOLT-4 leukemia): 40.6 µM

SMILES: COc1cc2c3c(n(C)c(=O)c2cc1OC)-c1cc2c(cc1/C3=C\CCCI)OCO2
- TGI (OVCAR-8 ovarian): > 100 µM
- TGI (HT29 colon): > 100 µM
- TGI (TK-10 renal): > 85.6 µM
- TGI (SNB-75 CNS): > 52 µM
- TGI (HCC-2998 colon): > 100 µM
- TGI (IGROV1 ovarian): > 46.7 µM
- TGI (SK-MEL-28 melanoma): > 100 µM
- TGI (HCT-15 colon): > 100 µM
- TGI (A498 renal): > 93.3 µM
- TGI (MOLT-4 leukemia): > 36.3 µM

SMILES: COC1=CC(=O)CC(C)C12Oc1c(Cl)c(OC)cc(OC)c1C2=O (stereo not given)
- TGI (OVCAR-8 ovarian): > 100 µM
- TGI (HT29 colon): > 100 µM
- TGI (TK-10 renal): > 100 µM
- TGI (SNB-75 CNS): 28.5 µM
- TGI (HCC-2998 colon): > 100 µM
- TGI (IGROV1 ovarian): > 100 µM
- TGI (SK-MEL-28 melanoma): > 100 µM
- TGI (HCT-15 colon): > 100 µM
- TGI (A498 renal): > 93.8 µM
- TGI (MOLT-4 leukemia): > 100 µM

SMILES: CCCCCCCCCCCC[C@@H](O)[C@H]1CCC([C@H](O)CCCCC(=O)CCCCCCCC2=C[C@H](C)OC2=O)O1 (stereo not given in full)
- TGI (OVCAR-8 ovarian): > 50 µM
- TGI (HT29 colon): > 50 µM
- TGI (TK-10 renal): > 50 µM
- TGI (SNB-75 CNS): > 50 µM
- TGI (HCC-2998 colon): > 50 µM
- TGI (IGROV1 ovarian): > 50 µM
- TGI (SK-MEL-28 melanoma): > 50 µM
- TGI (HCT-15 colon): > 50 µM
- TGI (A498 renal): > 50 µM
- TGI (MOLT-4 leukemia): > 50 µM

SMILES: COC1=CC2(CC(OC)=C1OC)OC21COc2ccccc2C1=O (stereo not given)
- TGI (OVCAR-8 ovarian): > 100 µM
- TGI (HT29 colon): > 100 µM
- TGI (TK-10 renal): > 100 µM
- TGI (SNB-75 CNS): > 100 µM
- TGI (HCC-2998 colon): > 100 µM
- TGI (IGROV1 ovarian): > 100 µM
- TGI (SK-MEL-28 melanoma): > 100 µM
- TGI (HCT-15 colon): > 100 µM
- TGI (A498 renal): > 100 µM
- TGI (MOLT-4 leukemia): > 100 µM

SMILES: Cc1nc(C)c(N2CCNCC2)c(=O)[nH]1
- TGI (OVCAR-8 ovarian): > 100 µM
- TGI (HT29 colon): > 100 µM
- TGI (TK-10 renal): > 100 µM
- TGI (SNB-75 CNS): > 100 µM
- TGI (HCC-2998 colon): > 100 µM
- TGI (IGROV1 ovarian): > 100 µM
- TGI (SK-MEL-28 melanoma): > 100 µM
- TGI (HCT-15 colon): > 100 µM
- TGI (A498 renal): > 100 µM
- TGI (MOLT-4 leukemia): > 100 µM

SMILES: C=C1CC(Cn2ccc(=O)[nH]c2=O)(c2ccc(Cl)cc2)OC1=O (stereo not given)
- TGI (OVCAR-8 ovarian): 24.5 µM
- TGI (HT29 colon): 13.4 µM
- TGI (TK-10 renal): 4.72 µM
- TGI (SNB-75 CNS): 30.9 µM
- TGI (HCC-2998 colon): 31.2 µM
- TGI (IGROV1 ovarian): 9.98 µM
- TGI (SK-MEL-28 melanoma): 13.7 µM
- TGI (HCT-15 colon): 6.91 µM
- TGI (A498 renal): 32.4 µM
- TGI (MOLT-4 leukemia): 4.47 µM

SMILES: O=[N+]([O-])C(/C=N/Nc1ccccc1)/C=N/Nc1ccccc1
- TGI (OVCAR-8 ovarian): > 100 µM
- TGI (HT29 colon): > 100 µM
- TGI (TK-10 renal): > 100 µM
- TGI (SNB-75 CNS): > 100 µM
- TGI (HCC-2998 colon): > 100 µM
- TGI (IGROV1 ovarian): > 100 µM
- TGI (SK-MEL-28 melanoma): > 100 µM
- TGI (HCT-15 colon): > 100 µM
- TGI (A498 renal): > 100 µM
- TGI (MOLT-4 leukemia): > 100 µM
